From patent publication US20120029187A1, “HALOALKYLSULFONANILIDE DERIVATIVE” (Nissan Chemical Industries, Ltd., priority 2009, published 2012)

Legend:
Format in all cases: in vivo
barnyardgrass [1] = test: Test Example 1: herbicidal effects in preemergence treatment under submerged conditions; conditions: dose 2.52 g/a
In short: (§1)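 Scoring 0 (<5% mortality) to 5 (≥90%) was done three weeks after preemergence application to the water surface of submerged (4 cm) alluvial soil, doses given as g per are. Weeds were seeded and 2.5-leaf rice transplanted on the treatment day; greenhouse at 25–30 °C.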

bulrush [2] = test: as above; conditions: dose 2.52 g/a
In short: as §1

ducksalad [3] = test: as above; conditions: dose 2.52 g/a
In short: as §1

transplanted rice = test: Test Example 1: preemergence treatment under submerged conditions, effect on crop; conditions: dose 2.52 g/a
In short: as §1

barnyardgrass [4] = test: Test Example 2: herbicidal effects during the vegetation period under submerged conditions; conditions: treatment during the vegetation period under submerged conditions; dose 2.52 g/a
In short: (§2)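 Barnyardgrass, bulrush and ducksalad were co-sown in alluvial soil flooded to 4 cm and grown in a greenhouse at 25 to 30° C. At the 1- or 2-leaf stage, water-diluted emulsifiable concentrates went onto the water surface at set doses (g/a). Herbicidal effect was scored three weeks later on a graded scale.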

bulrush [5] = test: as above; conditions: treatment during the vegetation period under submerged conditions; dose 2.52 g/a
In short: as §2

ducksalad [6] = test: as above; conditions: treatment during the vegetation period under submerged conditions; dose 2.52 g/a
In short: as §2

Italian ryegrass [7] = test: Test Example 3: herbicidal effects in soil treatment; conditions: dose 3.2 g/a
In short: (§3)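 Seeds were sown in sterilized diluvial soil and covered with about 1.5 cm of soil. Compounds, formulated as emulsifiable concentrates and diluted with water, were sprayed evenly over the soil surface at set doses in g/a. Herbicidal effect was scored on a rating scale three weeks later.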

barnyardgrass [8] = test: as above; conditions: dose 3.2 g/a
In short: as §3

beadstraw [9] = test: as above; conditions: dose 3.2 g/a
In short: as §3

common chickweed [10] = test: as above; conditions: dose 3.2 g/a
In short: as §3

common lambsquater [11] = test: as above; conditions: dose 3.2 g/a
In short: as §3

common ragweed [12] = test: as above; conditions: dose 3.2 g/a
In short: as §3

giant foxtail [13] = test: as above; conditions: dose 3.2 g/a
In short: as §3

large crabgrass [14] = test: as above; conditions: dose 3.2 g/a
In short: as §3

posumbu knotweed [15] = test: as above; conditions: dose 3.2 g/a
In short: as §3

redroot pigweed [16] = test: as above; conditions: dose 3.2 g/a
In short: as §3

velvetleaf [17] = test: as above; conditions: dose 3.2 g/a
In short: as §3

water foxtail [18] = test: as above; conditions: dose 3.2 g/a
In short: as §3

Italian ryegrass [19] = test: Test Example 4: herbicidal effect in foliage treatment; conditions: dose 3.2 g/a
In short: (§4)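 A uniform foliar spray of emulsifiable concentrate, diluted with water to give the stated g/a dose, was applied to plants raised for 14 days from seed in sterilized diluvial soil at 25 to 30° C. Herbicidal effects were scored three weeks later.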

barnyardgrass [20] = test: as above; conditions: dose 3.2 g/a
In short: as §4

beadstraw [21] = test: as above; conditions: dose 3.2 g/a
In short: as §4

common chickweed [22] = test: as above; conditions: dose 3.2 g/a
In short: as §4

common lambsquater [23] = test: as above; conditions: dose 3.2 g/a
In short: as §4

common ragweed [24] = test: as above; conditions: dose 3.2 g/a
In short: as §4

giant foxtail [25] = test: as above; conditions: dose 3.2 g/a
In short: as §4

large crabgrass [26] = test: as above; conditions: dose 3.2 g/a
In short: as §4

posumbu knotweed [27] = test: as above; conditions: dose 3.2 g/a
In short: as §4

redroot pigweed [28] = test: as above; conditions: dose 3.2 g/a
In short: as §4

velvetleaf [29] = test: as above; conditions: dose 3.2 g/a
In short: as §4

water foxtail [30] = test: as above; conditions: dose 3.2 g/a
In short: as §4

[31] = three weeks after the application

With `CC1CON(Cc2ccccc2NS(=O)(=O)C(F)(F)F)C(=O)O1` (centres unmarked) [III-3] the “A: barnyardgrass, herbicidal effect (evaluation scale 0-5)” value (barnyardgrass [1]) was 4 (mortality of at least 70% and less than 90%), the “B: bulrush, herbicidal effect (evaluation scale 0-5)” value (shortened to “B: bulrush, herbicidal effect”) (bulrush [2]) was 5 (mortality of 90% or above (nearly complete death)) and the “C: ducksalad, herbicidal effect (evaluation scale 0-5)” value (“C: ducksalad, herbicidal effect” for short) (ducksalad [3]) was 5 (mortality of 90% or above (nearly complete death)). The “a: transplanted rice, effect on crop (evaluation scale 0-5)” value (transplanted rice) was 0 (mortality of less than 5% (almost ineffective)), the “A: barnyardgrass, herbicidal effect (evaluation scale 0-5)” value (barnyardgrass [4]) was 5 (mortality of 90% or above (nearly complete death)) and the “B: bulrush, herbicidal effect” value (bulrush [5]) was 5 (mortality of 90% or above (nearly complete death)). The “C: ducksalad, herbicidal effect” value (ducksalad [6]) was 5 (mortality of 90% or above (nearly complete death)), the “herbicidal effect, H: Italian ryegrass” value (Italian ryegrass [7]) was 0 (mortality of less than 5% (almost ineffective)) and the “herbicidal effect, A: barnyardgrass” value (barnyardgrass [8]) was 5 (mortality of 90% or above (nearly complete death)). For the same compound, the “herbicidal effect, O: beadstraw” value (beadstraw [9]) was 0 (mortality of less than 5% (almost ineffective)), the “herbicidal effect, N: common chickweed” value (common chickweed [10]) was 4 (mortality of at least 70% and less than 90%) and the “herbicidal effect, L: common lambsquater” value (common lambsquater [11]) was 0 (mortality of less than 5% (almost ineffective)). For the same compound, the “herbicidal effect, J: common ragweed” value (common ragweed [12]) was 5 (mortality of 90% or above (nearly complete death)), the “herbicidal effect, E: giant foxtail” value (giant foxtail [13]) was 5 (mortality of 90% or above (nearly complete death)) and the “herbicidal effect, D: large crabgrass” value (large crabgrass [14]) was 5 (mortality of 90% or above (nearly complete death)). The “herbicidal effect, M: posumbu knotweed” value (posumbu knotweed [15]) was 5 (mortality of 90% or above (nearly complete death)), the “herbicidal effect, K: redroot pigweed” value (redroot pigweed [16]) was 0 (mortality of less than 5% (almost ineffective)) and the “herbicidal effect, I: velvetleaf” value (velvetleaf [17]) was 1 (mortality of at least 5% and less than 20%). The “herbicidal effect, G: water foxtail” value (water foxtail [18]) was 5 (mortality of 90% or above (nearly complete death)), the “H: Italian ryegrass, herbicidal effect” value (Italian ryegrass [19]; [31]) was 0 (mortality of less than 5% (almost ineffective)) and the “A: barnyardgrass, herbicidal effect” value (barnyardgrass [20]; [31]) was 5 (mortality of 90% or above (nearly complete death)). For the same compound, the “O: beadstraw, herbicidal effect” value (beadstraw [21]; [31]) was 4 (mortality of at least 70% and less than 90%), the “N: common chickweed, herbicidal effect” value (common chickweed [22]; [31]) was 4 (mortality of at least 70% and less than 90%) and the “L: common lambsquater, herbicidal effect” value (common lambsquater [23]; [31]) was 0 (mortality of less than 5% (almost ineffective)). For the same compound, the “J: common ragweed, herbicidal effect” value (common ragweed [24]; [31]) was 4 (mortality of at least 70% and less than 90%), the “E: giant foxtail, herbicidal effect” value (giant foxtail [25]; [31]) was 4 (mortality of at least 70% and less than 90%) and the “D: large crabgrass, herbicidal effect” value (large crabgrass [26]; [31]) was 4 (mortality of at least 70% and less than 90%). For the same compound, the “M: posumbu knotweed, herbicidal effect” value (posumbu knotweed [27]; [31]) was 2 (mortality of at least 20% and less than 40%), the “K: redroot pigweed, herbicidal effect” value (redroot pigweed [28]; [31]) was 0 (mortality of less than 5% (almost ineffective)) and the “I: velvetleaf, herbicidal effect” value (velvetleaf [29]; [31]) was 2 (mortality of at least 20% and less than 40%). For the same compound, the “G: water foxtail, herbicidal effect” value (water foxtail [30]; [31]) was 5 (mortality of 90% or above (nearly complete death)).

`Cn1nc(Cl)cc1C1(C)CC(=O)N(Cc2ccccc2NS(=O)(=O)C(F)(F)F)CO1` (centres unmarked) [II-59] was tested, and the “A: barnyardgrass, herbicidal effect (evaluation scale 0-5)” value (barnyardgrass [1]) was 5 (mortality of 90% or above (nearly complete death)), the “B: bulrush, herbicidal effect” value (bulrush [2]) was 5 (mortality of 90% or above (nearly complete death)) and the “C: ducksalad, herbicidal effect” value (ducksalad [3]) was 5 (mortality of 90% or above (nearly complete death)). The “a: transplanted rice, effect on crop (evaluation scale 0-5)” value (transplanted rice) was 0 (mortality of less than 5% (almost ineffective)), the “A: barnyardgrass, herbicidal effect (evaluation scale 0-5)” value (barnyardgrass [4]) was 5 (mortality of 90% or above (nearly complete death)) and the “B: bulrush, herbicidal effect” value (bulrush [5]) was 5 (mortality of 90% or above (nearly complete death)). For the same compound, the “C: ducksalad, herbicidal effect” value (ducksalad [6]) was 5 (mortality of 90% or above (nearly complete death)), the “H: Italian ryegrass, herbicidal effect (evaluation scale 0-5)” value (Italian ryegrass [7]) was 5 (mortality of 90% or above (nearly complete death)) and the “A: barnyardgrass, herbicidal effect (evaluation scale 0-5)” value (barnyardgrass [8]) was 4 (mortality of at least 70% and less than 90%). For the same compound, the “O: beadstraw, herbicidal effect (evaluation scale 0-5)” value (beadstraw [9]) was 1 (mortality of at least 5% and less than 20%), the “N: common chickweed, herbicidal effect (evaluation scale 0-5)” value (common chickweed [10]) was 4 (mortality of at least 70% and less than 90%) and the “L: common lambsquater, herbicidal effect (evaluation scale 0-5)” value (common lambsquater [11]) was 0 (mortality of less than 5% (almost ineffective)). The “J: common ragweed, herbicidal effect (evaluation scale 0-5)” value (common ragweed [12]) was 3 (mortality of at least 40% and less than 70%), the “E: giant foxtail, herbicidal effect (evaluation scale 0-5)” value (giant foxtail [13]) was 4 (mortality of at least 70% and less than 90%) and the “D: large crabgrass, herbicidal effect (evaluation scale 0-5)” value (large crabgrass [14]) was 1 (mortality of at least 5% and less than 20%). The “M: posumbu knotweed, herbicidal effect (evaluation scale 0-5)” value (posumbu knotweed [15]) was 1 (mortality of at least 5% and less than 20%), the “K: redroot pigweed, herbicidal effect (evaluation scale 0-5)” value (redroot pigweed [16]) was 3 (mortality of at least 40% and less than 70%) and the “I: velvetleaf, herbicidal effect (evaluation scale 0-5)” value (velvetleaf [17]) was 1 (mortality of at least 5% and less than 20%). The “G: water foxtail, herbicidal effect (evaluation scale 0-5)” value (water foxtail [18]) was 0 (mortality of less than 5% (almost ineffective)), the “H: Italian ryegrass, herbicidal effect” value (Italian ryegrass [19]; three weeks after application) was 1 (mortality of at least 5% and less than 20%) and the “A: barnyardgrass, herbicidal effect” value (barnyardgrass [20]; three weeks after application) was 5 (mortality of 90% or above (nearly complete death)). For the same compound, the “O: beadstraw, herbicidal effect” value (beadstraw [21]; three weeks after application) was 5 (mortality of 90% or above (nearly complete death)), the “N: common chickweed, herbicidal effect” value (common chickweed [22]; three weeks after application) was 4 (mortality of at least 70% and less than 90%) and the “L: common lambsquater, herbicidal effect” value (common lambsquater [23]; three weeks after application) was 1 (mortality of at least 5% and less than 20%). The “J: common ragweed, herbicidal effect” value (common ragweed [24]; three weeks after application) was 4 (mortality of at least 70% and less than 90%), the “E: giant foxtail, herbicidal effect” value (giant foxtail [25]; three weeks after application) was 1 (mortality of at least 5% and less than 20%) and the “D: large crabgrass, herbicidal effect” value (large crabgrass [26]; three weeks after application) was 3 (mortality of at least 40% and less than 70%). For the same compound, the “M: posumbu knotweed, herbicidal effect” value (posumbu knotweed [27]; three weeks after application) was 1 (mortality of at least 5% and less than 20%), the “K: redroot pigweed, herbicidal effect” value (redroot pigweed [28]; three weeks after application) was 0 (mortality of less than 5% (almost ineffective)) and the “I: velvetleaf, herbicidal effect” value (velvetleaf [29]; three weeks after application) was 2 (mortality of at least 20% and less than 40%). The “G: water foxtail, herbicidal effect” value (water foxtail [30]; three weeks after application) was 5 (mortality of 90% or above (nearly complete death)).
